Tests used:
IL-6 [1] = assay: Kidney tissue IL-6 mRNA expression by real-time PCR in cisplatin-induced nephrotoxicity model; type: in vivo, C57BL/6 male mice; conditions: cisplatin and oleanolic acid acetate (50 mg/Kg)-treated group
Protocol: (§1) For the experiment, the mice were kept under constant temperature (23±3° C.), humidity (55±15%) and light irradiation (7:00 to 19:00). After the purchase, the mice were stabilized in the SPF animal breeding room for 1 week and used in the experiment.
(§2) After the mouse sacrifice, kidneys were separated and homogenized by adding Trizol reagent (Invitrogen, Carlsbad, Calif., USA). To this, chloroform was added to extract RNA, and isopropanol was added to precipitate. After the RNA precipitate was washed with 75% ethanol, the RNA concentration and purity were measured with a 2100 Bioanalyzer System (Agilent Technologies, Santa Clara, Calif., USA), and Taqman reverse transcription reagents kit (Applied Biosystems, Foster City) was used to synthesize cDNA. The expression level of inflammatory factors was measured by real-time PCR using SYBR Green PCR master mix kit (Applied Biosystem, Foster City, Calif., USA).
(§3) In order to examine the expression levels of TNF-α and IL-6, inflammatory cytokines, COX-2, a prostaglandin E2 (PGE2) synthase involved in increasing the vascular permeability of the inflammatory response, and MCP-1, an inflammatory chemokine, Real-time PCR was performed on each gene.

COX-2 = assay: Kidney tissue COX-2 mRNA expression by real-time PCR in cisplatin-induced nephrotoxicity model; type: in vivo, C57BL/6 male mice; conditions: cisplatin and oleanolic acid acetate (50 mg/Kg)-treated group
Protocol: as §1, §2, §3

peritoneal macrophages = assay: MTT assay cytotoxicity in mouse peritoneal macrophages; type: cell-based; conditions: for cell survival rate: maximum concentration of 1000 μg/ml, 24 hours
Protocol: For the isolation of peritoneal macrophage of mice, 3 ml of 3% thioglycollate medium was administered intraperitoneally to 5-6 week old ICR male mice (Oriental Bio, Seoul, Korea). After 3 days, 6 ml to 7 ml of PBS was administered intraperitoneally, followed by a massage of peritoneal cavity to collect the peritoneal fluid. The collected peritoneal fluid was centrifuged and suspended in RPMI (10% FBS, 1% antibiotics), transferred to a plate, and stabilized at 37° C. for 2 hours.
(§4) The absorbance thereof was measured at 570 nm.

TNF-α [2] = assay: Kidney tissue TNF-α mRNA expression by real-time PCR in cisplatin-induced nephrotoxicity model; type: in vivo, C57BL/6 male mice; conditions: cisplatin and oleanolic acid acetate (50 mg/Kg)-treated group
Protocol: as §1, §2, §3

MCP-1 = assay: Kidney tissue MCP-1 mRNA expression by real-time PCR in cisplatin-induced nephrotoxicity model; type: in vivo, C57BL/6 male mice; conditions: cisplatin and oleanolic acid acetate (50 mg/Kg)-treated group
Protocol: as §1, §2, §3

[3] = tested on: cisplatin-induced nephrotoxicity; assay: Cisplatin-induced nephrotoxicity animal model: body weight, kidney weight, death rate, BUN; type: in vivo, C57BL/6 male mice
Protocol: as §1
After the mouse sacrifice, the body weight was measured, the kidney was isolated, the blood was collected from the heart, and the blood urea nitrogen (BUN), a biochemical indicator related to nephrotoxicity, was measured. The collected mouse blood was centrifuged at 3000 rpm and 4° C. for 15 minutes using a centrifuge to separate the only serum, and the BUN was measured using an automatic analyzer (Fuji Dry-Chem NX500i, Tokyo, Japan).
The death rate was expressed as a percentage by dividing the number of mice killed in each group by the total number of mice.

HEK-293T cells = assay: MTT assay cytotoxicity in HEK-293T human embryonic kidney cells; conditions: for cell survival rate: HEK-293T, highest concentration of 1000 μg/ml, 24 hours
Protocol: HEK-293T cells, human embryonic kidney cells, were cultured in Dulbecco's modified eagle medium (Cat No. 12800-017, Gibco, USA) supplemented with heat-inactivated 10% FBS.
The survival rate of cultured cells was measured by MTT reduction method. As an MTT solution, formazan was formed by mitochondrial dehydrogenases in living cells to confirm cell viability. […] After 24 hours, 20 μl of MTT solution was added to each well, followed by further culturing for 2 hours. Then, the culture solution was removed, and 100 μl of dimethylsulfoxide was added thereto. The absorbance thereof was measured at 570 nm.

IL-6 [4] = assay: Blood IL-6 by ELISA in cisplatin-induced nephrotoxicity model; type: in vivo, C57BL/6 male mice; conditions: cisplatin and oleanolic acid acetate (50 mg/Kg)-treated group, serum ELISA
Protocol: as §1
(§5) In order to measure inflammatory cytokines in the blood (TNF-α and IL-6), serum was separated and used from blood, and TNF-α and IL-6 were measured using a mouse ELISA kit (R&D system, Minneapolis, Minn., USA). ELISA color development was measured using a Varioskan™ LUX multimode microplate reader (Thermofisher, Sunnyvale, Calif., USA) at a wavelength of 450 nm.

spleen cells = assay: MTT assay cytotoxicity in mouse spleen cells; type: cell-based; conditions: all concentrations (100, 300, and 600 μg/ml)
Protocol: For the isolation of mouse spleen cells, 5-6 week old ICR male mice (Oriental Bio, Seoul, Korea) were sacrificed with CO2 and then their spleen was aseptically extracted. The spleen was ground with a filter to separate single spleen cells, centrifuged using centrifugation, and erythrocytes were dissolved using ficoll. Cells from which erythrocytes had been removed were stabilized with RPMI (10% FBS, 1% antibiotics) at 37° C. for 2 hours.
as §4

TNF-α [5] = assay: Blood TNF-α by ELISA in cisplatin-induced nephrotoxicity model; type: in vivo, C57BL/6 male mice; conditions: cisplatin and oleanolic acid acetate (50 mg/Kg)-treated group, serum ELISA
Protocol: as §1, §5

Row | SMILES | amount of mRNA expression of IL-6 (IL-6 [1]) | amount of mRNA expression of COX-2 (COX-2) | cytotoxicity (in words) (peritoneal macrophages) | cell survival rate (peritoneal macrophages) | amount of mRNA expression of TNF-α (TNF-α [2]) | amount of mRNA expression of MCP-1 (MCP-1) | death rate ([3]; cisplatin 20 mg/kg i.p. and oleanolic acid acetate 50 mg/Kg orally, mice) | BUN value ([3]; cisplatin and oleanolic acid acetate (50 mg/Kg oral)-treated group, serum, day 5, vs cisplatin group) | cell survival rate (HEK-293T cells) | cytotoxicity (in words) (HEK-293T cells; human kidney cell lines, compared with oleanolic acid) | IL-6 in the blood (IL-6 [4]) | cell survival rate compared with oleanolic acid (in words) (spleen cells) | TNF-α in the blood (TNF-α [5])
1 | CC(=O)O[C@H]1CC[C@@]2(C)C(CC[C@]3(C)[C@@H]2CC=C2[C@H]4CC(C)(C)CC[C@]4(C(=O)O)CC[C@]23C)C1(C)C (stereo partly drawn) [oleanolic acid acetate, 4aS,6aR,6aS,6bR,8aR,10S,12aR,14bS-10-hydroxy-2,2,6a,6b,9,9,12a-heptamethyl-1,3,4,5,6,6a,7,8,8a,10,11,12,13,14b-tetradecahydropicene-4a-carboxylic acid acetate] | decreased | decreased | almost no cytotoxicity | 81% | decreased | decreased | 44% | decreased | 43% | concentration-dependently less than that of oleanolic acid | decreased | higher cell survival rate than that of oleanolic acid | decreased
2 | CC1(C)CC[C@]2(C(=O)O)CC[C@]3(C)C(=CC[C@@H]4[C@@]5(C)CC[C@H](O)C(C)(C)[C@@H]5CC[C@]43C)[C@@H]2C1 [oleanolic acid] | – | – | cytotoxicity in a concentration-dependent manner | 41% | – | – | – | – | 27% | – | – | – | –

From patent publication US11464787B2, “Composition comprising oleanolic acid acetate as active ingredient for preventing, alleviating, or treating renal toxicity induced by medicine” (Korea Research Institute of Bioscience and Biotechnology, priority 2016, dated 2022)
